# Experimental data from article PMC8819633 (Journal of medicinal chemistry, 2021).
# Key:
# [1] = system: P-PRAS40 (T246) and P-S6 (S240/244); assay: Western blot of downstream signaling inhibition in BT474 cells; type: cell-based, human; conditions: 24 h, compared with GDC-0068 (1 μM)
# [2] = system: total AKT (T-AKT) and phosphorylated AKT (P-AKT (S473)); assay: Western blot of AKT degradation in BT474 cells; type: cell-based, human; conditions: for T-AKT and P-AKT protein degradation (western blot): 24 h, 1, 5 and 10 μM (12-13: 1, 3 and 10 μM); for T-AKT protein level (western blot): controls at 1 μM; for extent of T-AKT degradation in concentration-response: indicated concentrations
compound,measurement,setting,value
"3-(((S)-2-(4-Chlorophenyl)-3-(4-((5R,7R)-7-hydroxy-5-methyl-6,7-dihydro-5H-cyclopenta[d]pyrimidin-4-yl)piperazin-1-yl)-3-oxopropyl)amino)-N-(9-(2-(2,6-dioxopiperidin-3-yl)-1,3-dioxoisoindolin-4-yl)nonyl)propenamide [Compound 27]","inhibition of downstream signaling, P-PRAS40 and P-S6",[1],maintained the excellent AKT degradation and downstream signaling inhibition effects
same,T-AKT and P-AKT degradation,"[2]; 1 μM, 24 h",> 95%
same,T-AKT and P-AKT protein degradation (western blot),[2],maintained the excellent AKT degradation
"3-(((S)-2-(4-Chlorophenyl)-3-(4-((5R,7R)-7-hydroxy-5-methyl-6,7-dihydro-5H-cyclopenta[d]pyrimidin-4-yl)piperazin-1-yl)-3-oxopropyl)amino)-N-(2-((2-(2,6-dioxopiperidin-3-yl)-1,3-dioxoisoindolin-4-yl)amino)ethyl)propenamide [Compound 19]",T-AKT and P-AKT protein degradation (western blot),[2],marginally effective in inducing AKT degradation at 1–10 μM
"CC(C)NC[C@@H](C(=O)N1CCN(c2ncnc3c2[C@H](C)C[C@H]3O)CC1)c1ccc(Cl)cc1 [GDC-0068, reference compound]","inhibition of downstream signaling, P-PRAS40 and P-S6",[1],effectively inhibited downstream signaling
same,time course of T-AKT and P-AKT degradation,"[2]; 1 μM, indicated times",no effect on the T-AKT protein level and increased the P-AKT protein level
same,P-AKT (S473) protein level (western blot),"[2]; 24 h, GDC-0068 at 1 μM",AKT hyperphosphorylation
same,T-AKT protein level (western blot),[2]; 24 h,no detectable effect on the T-AKT protein level
"3-(((S)-2-(4-Chlorophenyl)-3-(4-((5R,7R)-7-hydroxy-5-methyl-6,7-dihydro-5H-cyclopenta[d]pyrimidin-4-yl)piperazin-1-yl)-3-oxopropyl)amino)-N-(6-((2-(2,6-dioxopiperidin-3-yl)-1,3-dioxoisoindolin-4-yl)amino)hexyl)propenamide [Compound 23]",T-AKT and P-AKT protein degradation (western blot),[2],highly effective in reducing T-AKT and P-AKT protein levels
"C[C@@H]1C[C@@H](O)c2ncnc(N3CCN(C(=O)[C@H](CNCCC(=O)NCCCCCCCCNc4cccc5c4C(=O)N(C4CCC(=O)N(C)C4=O)C5=O)c4ccc(Cl)cc4)CC3)c21 (stereo partly drawn) [Compound 62, 3-(((S)-2-(4-Chlorophenyl)-3-(4-((5R,7R)-7-hydroxy-5-methyl-6,7-dihydro-5H-cyclopenta[d]pyrimidin-4-yl)piperazin-1-yl)-3-oxopropyl)amino)-N-(8-((2-(1-methyl-2,6-dioxopiperidin-3-yl)-1,3-dioxoisoindolin-4-yl)amino)octyl)propenamide]",extent of T-AKT degradation in concentration-response,[2]; 24 h,did not degrade T-AKT
"Cc1ncsc1-c1ccc(CNC(=O)[C@@H]2C[C@@H](O)CN2C(=O)[C@@H](NC(=O)COCCNC(=O)CCNC[C@@H](C(=O)N2CCN(c3ncnc4c3[C@H](C)C[C@H]4O)CC2)c2ccc(Cl)cc2)C(C)(C)C)cc1 [Compound 3, (2S,4R)-1-((2S,15S)-2-(tert-Butyl)-15-(4-chlorophenyl)-16-(4-((5R,7R)-7-hydroxy-5-methyl-6,7-dihydro-5H-cyclopenta[d]-pyrimidin-4-yl)piperazin-1-yl)-4,10,16-trioxo-6-oxa-3,9,13-triaza-hexadecanoyl)-4-hydroxy-N-(4-(4-methylthiazol-5-yl)benzyl)-pyrrolidine-2-carboxamide]","inhibition of downstream signaling, P-PRAS40 and P-S6",[1],less than GDC-0068
same,T-AKT and P-AKT protein degradation (western blot),[2],induced significant T-AKT and P-AKT protein degradation at concentrations of 5 and 10 μM
"Nc1cccc2c1C(=O)N(C1CCC(=O)NC1=O)C2=O (stereo not drawn) [POM, pomalidomide, reference compound]",T-AKT protein level (western blot),[2]; 24 h,no detectable effect on the T-AKT protein level
"3-(((S)-2-(4-Chlorophenyl)-3-(4-((5R,7R)-7-hydroxy-5-methyl-6,7-dihydro-5H-cyclopenta[d]pyrimidin-4-yl)piperazin-1-yl)-3-oxopropyl)amino)-N-(4-((2-(2,6-dioxopiperidin-3-yl)-1,3-dioxoisoindolin-4-yl)amino)butyl)propenamide [Compound 21]",T-AKT and P-AKT protein degradation (western blot),[2],marginally effective in inducing AKT degradation at 1–10 μM
"Cc1ncsc1-c1ccc(CNC(=O)[C@@H]2C[C@@H](O)CN2C(=O)[C@@H](NC(=O)CCCCNC(=O)CCNC[C@@H](C(=O)N2CCN(c3ncnc4c3[C@H](C)C[C@H]4O)CC2)c2ccc(Cl)cc2)C(C)(C)C)cc1 [Compound 6, (2S,4R)-1-((S)-2-(5-(3-(((S)-2-(4-Chlorophenyl)-3-(4-((5R,7R)-7-hydroxy-5-methyl-6,7-dihydro-5H-cyclopenta[d]pyrimidin-4-yl)-piperazin-1-yl)-3-oxopropyl)amino)propanamido)pentanamido)-3,3-dimethylbutanoyl)-4-hydroxy-N-(4-(4-methylthiazol-5-yl)-benzyl)pyrrolidine-2-carboxamide]",T-AKT and P-AKT protein degradation (western blot),[2],concentration-dependently reduced the protein levels of T-AKT and P-AKT
"Cc1ncsc1-c1ccc(CNC(=O)[C@@H]2C[C@@H](O)CN2C(=O)[C@@H](N)C(C)(C)C)cc1 [VHL-1, reference compound]",T-AKT protein level (western blot),[2]; 24 h,no detectable effect on the T-AKT protein level
"3-(((S)-2-(4-Chlorophenyl)-3-(4-((5R,7R)-7-hydroxy-5-methyl-6,7-dihydro-5H-cyclopenta[d]pyrimidin-4-yl)piperazin-1-yl)-3-oxopropyl)amino)-N-(8-((2-(2,6-dioxopiperidin-3-yl)-1-oxoisoindolin-4-yl)amino)octyl)propenamide [Compound 28]",T-AKT and P-AKT protein degradation (western blot),[2],completely abolished AKT degradation activity
"3-(((S)-2-(4-Chlorophenyl)-3-(4-((5R,7R)-7-hydroxy-5-methyl-6,7-dihydro-5H-cyclopenta[d]pyrimidin-4-yl)piperazin-1-yl)-3-oxopropyl)amino)-N-(2-(2-((2-(2,6-dioxopiperidin-3-yl)-1,3-dioxoisoindolin-4-yl)amino)ethoxy)ethyl)propenamide [Compound 14]",T-AKT and P-AKT protein degradation (western blot),[2],not very effective at all concentrations tested
"3-(((S)-2-(4-Chlorophenyl)-3-(4-((5R,7R)-7-hydroxy-5-methyl-6,7-dihydro-5H-cyclopenta[d]pyrimidin-4-yl)piperazin-1-yl)-3-oxopropyl)amino)-N-(8-((2-(2,6-dioxopiperidin-3-yl)-1,3-dioxoisoindolin-4-yl)oxy)octyl)propenamide [Compound 29]","inhibition of downstream signaling, P-PRAS40 and P-S6",[1],maintained the excellent AKT degradation and downstream signaling inhibition effects
same,T-AKT and P-AKT degradation,"[2]; 1 μM, 24 h",> 95%
same,T-AKT and P-AKT protein degradation (western blot),[2],maintained the excellent AKT degradation
"3-(((S)-2-(4-Chlorophenyl)-3-(4-((5R,7R)-7-hydroxy-5-methyl-6,7-dihydro-5H-cyclopenta[d]pyrimidin-4-yl)piperazin-1-yl)-3-oxopropyl)amino)-N-(5-((2-(2,6-dioxopiperidin-3-yl)-1,3-dioxoisoindolin-4-yl)amino)pentyl)propenamide [Compound 22]",T-AKT and P-AKT protein degradation (western blot),[2],marginally effective in inducing AKT degradation at 1–10 μM
"Cc1ncsc1-c1ccc(CNC(=O)[C@@H]2C[C@@H](O)CN2C(=O)[C@@H](NC(=O)COCCOCCNC(=O)CCNC[C@@H](C(=O)N2CCN(c3ncnc4c3[C@H](C)C[C@H]4O)CC2)c2ccc(Cl)cc2)C(C)(C)C)cc1 [Compound 4, (2S,4R)-1-((2S,18S)-2-(tert-Butyl)-18-(4-chlorophenyl)-19-(4-((5R,7R)-7-hydroxy-5-methyl-6,7-dihydro-5H-cyclopenta[d]-pyrimidin-4-yl)piperazin-1-yl)-4,13,19-trioxo-6,9-dioxa-3,12,16-tri-azanonadecanoyl)-4-hydroxy-N-(4-(4-methylthiazol-5-yl)benzyl)-pyrrolidine-2-carboxamide]",T-AKT and P-AKT protein degradation (western blot),[2],less effective in AKT degradation
"(2S,4R)-1-((2S,25S)-2-(tert-Butyl)-25-(4-chlorophenyl)-26-(4-((5R,7R)-7-hydroxy-5-methyl-6,7-dihydro-5H-cyclopenta[d]-pyrimidin-4-yl)piperazin-1-yl)-4,20,26-trioxo-7,10,13,16-tetraoxa-3,19,23-triazahexacosanoyl)-4-hydroxy-N-(4-(4-methylthiazol-5-yl)benzyl)pyrrolidine-2-carboxamide [Compound 5]",T-AKT and P-AKT protein degradation (western blot),[2],less effective in AKT degradation
"3-(((S)-2-(4-Chlorophenyl)-3-(4-((5R,7R)-7-hydroxy-5-methyl-6,7-dihydro-5H-cyclopenta[d]pyrimidin-4-yl)piperazin-1-yl)-3-oxopropyl)amino)-N-(7-((2-(2,6-dioxopiperidin-3-yl)-1,3-dioxoisoindolin-4-yl)amino)heptyl)propenamide [Compound 24]",T-AKT and P-AKT protein degradation (western blot),[2],highly effective in reducing T-AKT and P-AKT protein levels
"3-(((S)-2-(4-Chlorophenyl)-3-(4-((5R,7R)-7-hydroxy-5-methyl-6,7-dihydro-5H-cyclopenta[d]pyrimidin-4-yl)piperazin-1-yl)-3-oxopropyl)amino)-N-(3-((2-(2,6-dioxopiperidin-3-yl)-1,3-dioxoisoindolin-4-yl)amino)propyl)propenamide [Compound 20]",T-AKT and P-AKT protein degradation (western blot),[2],marginally effective in inducing AKT degradation at 1–10 μM
"Cc1ncsc1-c1ccc([C@H](C)NC(=O)[C@H]2C[C@H](O)CN2C(=O)[C@@H](NC(=O)CCCCCCCCCCC(=O)NCCNC[C@@H](C(=O)N2CCN(c3ncnc4c3[C@H](C)C[C@H]4O)CC2)c2ccc(Cl)cc2)C(C)(C)C)cc1 [Compound 61, N^1-(2-(((S)-2-(4-Chlorophenyl)-3-(4-((5R,7R)-7-hydroxy-5-methyl-6,7-dihydro-5H-cyclopenta[d]pyrimidin-4-yl)piperazin-1-yl)-3-oxopropyl)amino)ethyl)-N^12-((S)-1-((2R,4S)-4-hydroxy-2-(((S)-1-(4-(4-methylthiazol-5-yl)phenyl)ethyl)carbamoyl)pyrrolidin-1-yl)-3,3-dimethyl-1-oxobutan-2-yl)dodecanediamide]",extent of T-AKT degradation in concentration-response,[2]; 24 h,did not degrade T-AKT
